Consider one compound from paper PMC9223764, “In Vitro Selection and Characterization of HIV-1 Variants with Increased Resistance to LP-40, Enfuvirtide-Based Lipopeptide Inhibitor” (International Journal of Molecular Sciences, 2022).

Common to all, as to assay type: cell-based
Common to all, as to settings: Table 3

Assay [1] relates to HIV-1 NL4-3 pseudovirus (WT). How it is done: (§1) The infectivity of HIV Env mutants and the inhibitory activities of membrane fusion inhibitors on mutants in TZM-bl cells were measured using a single-cycle infection assay as described previously. Briefly, the HIV pseudovirus was packed using an Env-coding plasmid, and pSG3ΔEnv was co-transfected into HEK293T cells. pSG3ΔEnv encodes an Env-defective, luciferase-expressing HIV-1 genome. After the pseudoviruses were harvested and filtrated, the amount of pseudoviruses was fixed via P24 antigen, and their infectivity was determined in TZM-bl cells. In order to measure the inhibitory activities of the inhibitors, inhibitors diluted serially 3-fold were mixed with an equal volume of pseudoviruses, and then 100 µL 1 × 10^5/mL TZM-bl cells were added to the mixture and incubated at 37 °C with 5% CO2 for 48 h. After that, TZM-bl cells were lysed using reporter lysis buffer, and IC50 values were calculated according to luciferase activity measured by luciferase assay reagents and a luminescence counter (Promega, Madison, WI, USA).

The subject of assay [2] is HIV-1 NL4-3 gp41 I37T pseudovirus. How it is done:
(§2) Viral RNA was extracted from the supernatant, and, after reverse transcription, the cDNA was amplified using PCR. These amplified DNA were connected to the T-Easy vector and transformed to Trans 2-Blue Chemically Competent Cells. These sequences were determined via sequencing. The expression plasmids, which contained different HIV-1NL4-3 Env mutants, were constructed using DNA assembly (NEBuilder® HiFi DNA Assembly Master Mix). In brief, two primers were used to amplify Env, and the other two primers were used to amplify the vector fragment. The products of PCR were purified with a 20–25 bp overlap in the terminal of Env and the vector fragment Env and the vector fragment were added to the DNA assembly master mix at […] for 15 min and then transformed to Trans 2-Blue Chemically Competent Cells. Additionally, a single-point mutation was generated using double-stranded DNA templates and a selection of mutants with a restriction enzyme (DpnI) as described previously.
as §1

For assay [3], the system named is HIV-1 NL4-3 gp41 L33S pseudovirus. How it is done:
as §2, §1

Assay [4] has as its system HIV-1 NL4-3 gp41 I69V pseudovirus. How it is done: as §2, §1
Assay [5] deals with HIV-1 NL4-3 gp41 NDQEEDYN pseudovirus. How it is done: (§3) We selected LP-40-induced drug resistance typical point mutations and combination mutation pseudoviruses to evaluate the current representative membrane fusion inhibitors.
as §1

Assay [6] relates to HIV-1 NL4-3 gp41 L33S/V38A/N42T pseudovirus. The procedure: as §3, §1
The test system of assay [7] is HIV-1 NL4-3 gp41 L33S/I37T pseudovirus. The procedure: as §3, §1
Assay [8] relates to HIV-1 NL4-3 gp41 V38A/N42T pseudovirus. How it is done: as §3, §1
The subject of assay [9] is HIV-1 NL4-3 gp41 NDQEEDYN/L33S/V38A/N42T pseudovirus. The procedure:
as §3, §1

The subject of assay [10] is HIV-1 NL4-3 gp41 NDQEEDYN/L33S/I37T pseudovirus. How it is done:
as §3, §1

One may read the IC50 as the midpoint of a concentration-inhibition curve. With `CC[C@H](C)[C@H](NC(=O)[C@H](C)NC(=O)[C@H](CCCNC(=N)N)NC(=O)[C@H](CC(=O)O)NC(=O)[C@H](Cc1c[nH]c2ccccc12)NC(=O)[C@H](C)NC(=O)[C@H](CCC(=O)O)NC(=O)[C@H](Cc1c[nH]c2ccccc12)NC(=O)[C@@H](NC(=O)[C@@H](NC(C)=O)[C@@H](C)O)[C@@H](C)O)C(=O)N[C@@H](C)C(=O)N[C@@H](CCC(=O)O)C(=O)N[C@@H](Cc1ccc(O)cc1)C(=O)N[C@@H](C)C(=O)N[C@@H](C)C(=O)N[C@@H](CCCNC(=N)N)C(=O)N[C@H](C(=O)N[C@@H](CCC(=O)O)C(=O)N[C@@H](C)C(=O)N[C@@H](CC(C)C)C(=O)N[C@H](C(=O)N[C@@H](CCCNC(=N)N)C(=O)N[C@@H](C)C(=O)N[C@@H](C)C(=O)N[C@@H](CCC(N)=O)C(=O)N[C@@H](CCC(=O)O)C(=O)N[C@@H](CCC(N)=O)C(=O)N[C@@H](CCC(N)=O)C(=O)N[C@@H](CCC(=O)O)C(=O)N[C@@H](CCCCN)C(=O)N[C@@H](CC(N)=O)C(=O)N[C@@H](CCC(=O)O)C(=O)N[C@@H](C)C(=O)N[C@@H](C)C(=O)N[C@@H](CC(C)C)C(=O)N[C@@H](CCCNC(=N)N)C(=O)N[C@@H](CCC(=O)O)C(=O)N[C@@H](CC(C)C)C(N)=O)[C@@H](C)CC)[C@@H](C)CC` [T2635], the IC50 in assay [1] (WT NL4-3, TZM-bl cells, 48 h, luciferase, means, triplicate, repeated three times) was 0.73 nM; in [2] (I37T, TZM-bl cells, 48 h, luciferase, means, triplicate, repeated three times) it was 0.97 nM; in assay [3] (L33S, TZM-bl cells, 48 h, luciferase, means, triplicate, repeated three times) it was 1.43 nM; in [4] (I69V, TZM-bl cells, 48 h, luciferase, means, triplicate, repeated three times), 0.75 nM; in [5] (NDQEEDYN (E109N, N113D, E119Q, D121E, N125E, S129D, H132Y, S133N), TZM-bl cells, 48 h, luciferase, means, triplicate, repeated three times) it was 1.94 nM; in [6] (L33S/V38A/N42T, TZM-bl cells, 48 h, luciferase, means, triplicate, repeated three times), 1.3 nM. The IC50 in assay [7] (L33S/I37T, TZM-bl cells, 48 h, luciferase, means, triplicate, repeated three times) is 1.51 nM; in assay [8] (V38A/N42T, TZM-bl cells, 48 h, luciferase, means, triplicate, repeated three times), 0.56 nM; in assay [9] (NDQEEDYN/L33S/V38A/N42T, TZM-bl cells, 48 h, luciferase, means, triplicate, repeated three times), 5.73 nM; in assay [10] (NDQEEDYN/L33S/I37T, TZM-bl cells, 48 h, luciferase, means, triplicate, repeated three times), 5.44 nM. Besides, the “Fold change in IC50” value is on record as 1.00 fold in [1] (WT NL4-3 reference); 1.33 fold in assay [2] (I37T relative to WT NL4-3); 1.97 fold in [3] (L33S relative to WT NL4-3); 1.04 fold in [4] (I69V relative to WT NL4-3); 2.67 fold in [5] (NDQEEDYN relative to WT NL4-3); 1.78 fold in [6] (L33S/V38A/N42T relative to WT NL4-3). In addition, the “Fold change in IC50” value in [7] (L33S/I37T relative to WT NL4-3) came to 2.07 fold; in assay [8] (V38A/N42T relative to WT NL4-3) it was 0.77 fold; in [9] (NDQEEDYN/L33S/V38A/N42T relative to WT NL4-3), 7.85 fold; in [10] (NDQEEDYN/L33S/I37T relative to WT NL4-3), 7.49 fold.
